Measured values reported in the NIST ThermoML archive (doi:10.1021/je5007696).
± gives the expanded uncertainty stated by the source.

Test: xn = mol fraction of the nth substance listed
Conditions: 100 kPa, Liquid; for viscosity: Concentric cylinders viscometry; for mass density: Vibrating tube method

COC(=O)CCCCC(=O)OC [dimethyl 1,6-hexanedioate] + CCC(C)=O
viscosity [mPa·s]
Conditions	x1 = 0.1002	x1 = 0.2002	x1 = 0.3002	x1 = 0.4004	x1 = 0.5001	x1 = 0.5999	x1 = 0.6998	x1 = 0.7994	x1 = 0.8997	x1 = 1
288.15 K	0.5707 ± 0.0081	0.7368 ± 0.0085	0.9419 ± 0.0092	1.183 ± 0.01	1.467 ± 0.011	1.802 ± 0.013	2.191 ± 0.015	2.636 ± 0.017	3.16 ± 0.021	3.751 ± 0.024
293.15 K	0.5434 ± 0.008	0.6952 ± 0.0084	0.8803 ± 0.009	1.096 ± 0.0097	1.347 ± 0.011	1.64 ± 0.012	1.974 ± 0.014	2.353 ± 0.016	2.794 ± 0.019	3.289 ± 0.022
298.15 K	0.5166 ± 0.0079	0.6563 ± 0.0083	0.824 ± 0.0088	1.019 ± 0.0095	1.242 ± 0.01	1.498 ± 0.012	1.79 ± 0.013	2.12 ± 0.015	2.491 ± 0.017	2.91 ± 0.02
303.15 K	0.4912 ± 0.0079	0.6199 ± 0.0082	0.7742 ± 0.0087	0.9509 ± 0.0093	1.15 ± 0.01	1.38 ± 0.011	1.635 ± 0.012	1.921 ± 0.014	2.241 ± 0.016	2.604 ± 0.018
308.15 K	0.4667 ± 0.0078	0.5865 ± 0.0081	0.7277 ± 0.0085	0.8892 ± 0.0091	1.069 ± 0.0098	1.274 ± 0.011	1.5 ± 0.012	1.75 ± 0.013	2.033 ± 0.015	2.342 ± 0.017
313.15 K	0.4425 ± 0.0078	0.555 ± 0.0081	0.6853 ± 0.0084	0.8331 ± 0.0089	0.9961 ± 0.0095	1.181 ± 0.01	1.382 ± 0.011	1.604 ± 0.012	1.851 ± 0.014	2.121 ± 0.015
318.15 K	0.4199 ± 0.0077	0.525 ± 0.008	0.6465 ± 0.0083	0.7827 ± 0.0088	0.9324 ± 0.0093	1.098 ± 0.01	1.279 ± 0.011	1.476 ± 0.012	1.695 ± 0.013	1.933 ± 0.015
323.15 K	0.4037 ± 0.0077	0.502 ± 0.0079	0.6165 ± 0.0082	0.7425 ± 0.0086	0.883 ± 0.0091	1.036 ± 0.0097	1.202 ± 0.011	1.381 ± 0.011	1.577 ± 0.013	1.79 ± 0.014

CCC(C)=O [butanone] + CCCCO
Conditions	mass density [kg/m3]	viscosity [mPa·s]
288.15 K, x1 = 0.0997	813.126 ± 0.17	2.293 ± 0.013
288.15 K, x1 = 0.1999	812.877 ± 0.17	1.645 ± 0.011
288.15 K, x1 = 0.3003	812.583 ± 0.18	1.257 ± 0.01
288.15 K, x1 = 0.4008	812.253 ± 0.18	1.009 ± 0.0095
288.15 K, x1 = 0.5003	811.906 ± 0.19	0.8332 ± 0.009
288.15 K, x1 = 0.6001	811.555 ± 0.2	0.7013 ± 0.0086
288.15 K, x1 = 0.6992	811.203 ± 0.21	0.5975 ± 0.0084
288.15 K, x1 = 0.7991	810.843 ± 0.22	0.5248 ± 0.0082
288.15 K, x1 = 0.899	810.477 ± 0.23	0.4708 ± 0.008
288.15 K, x1 = 1	810.133 ± 0.24	0.4306 ± 0.008
293.15 K, x1 = 0.0997	809.157 ± 0.17	2.034 ± 0.013
293.15 K, x1 = 0.1999	808.747 ± 0.17	1.483 ± 0.011
293.15 K, x1 = 0.3003	808.3 ± 0.18	1.147 ± 0.0098
293.15 K, x1 = 0.4008	807.824 ± 0.18	0.9297 ± 0.0092
293.15 K, x1 = 0.5003	807.337 ± 0.19	0.7756 ± 0.0088
293.15 K, x1 = 0.6001	806.848 ± 0.2	0.6603 ± 0.0085
293.15 K, x1 = 0.6992	806.362 ± 0.21	0.5696 ± 0.0083
293.15 K, x1 = 0.7991	805.875 ± 0.22	0.4997 ± 0.0081
293.15 K, x1 = 0.899	805.39 ± 0.23	0.4505 ± 0.008
293.15 K, x1 = 1	804.926 ± 0.24	0.4136 ± 0.0079
298.15 K, x1 = 0.0997	805.165 ± 0.17	1.814 ± 0.012
298.15 K, x1 = 0.1999	804.592 ± 0.17	1.343 ± 0.01
298.15 K, x1 = 0.3003	803.992 ± 0.18	1.051 ± 0.0095
298.15 K, x1 = 0.4008	803.369 ± 0.19	0.8588 ± 0.009
298.15 K, x1 = 0.5003	802.741 ± 0.19	0.7227 ± 0.0086
298.15 K, x1 = 0.6001	802.114 ± 0.2	0.6178 ± 0.0084
298.15 K, x1 = 0.6992	801.494 ± 0.21	0.5358 ± 0.0082
298.15 K, x1 = 0.7991	800.878 ± 0.22	0.475 ± 0.008
298.15 K, x1 = 0.899	800.271 ± 0.23	0.4313 ± 0.0079
298.15 K, x1 = 1	799.695 ± 0.24	0.3962 ± 0.0078
303.15 K, x1 = 0.0997	801.147 ± 0.17	1.626 ± 0.011
303.15 K, x1 = 0.1999	800.407 ± 0.17	1.221 ± 0.0099
303.15 K, x1 = 0.3003	799.653 ± 0.18	0.9652 ± 0.0092
303.15 K, x1 = 0.4008	798.884 ± 0.19	0.7945 ± 0.0088
303.15 K, x1 = 0.5003	798.115 ± 0.19	0.6753 ± 0.0085
303.15 K, x1 = 0.6001	797.349 ± 0.2	0.5823 ± 0.0083
303.15 K, x1 = 0.6992	796.597 ± 0.21	0.5093 ± 0.0081
303.15 K, x1 = 0.7991	795.852 ± 0.22	0.4521 ± 0.008
303.15 K, x1 = 0.899	795.126 ± 0.23	0.4114 ± 0.0079
303.15 K, x1 = 1	794.435 ± 0.24	0.3793 ± 0.0078
308.15 K, x1 = 0.0997	797.097 ± 0.17	1.465 ± 0.011
308.15 K, x1 = 0.1999	796.195 ± 0.17	1.115 ± 0.0096
308.15 K, x1 = 0.3003	795.288 ± 0.18	0.8886 ± 0.009
308.15 K, x1 = 0.4008	794.369 ± 0.19	0.7364 ± 0.0086
308.15 K, x1 = 0.5003	793.457 ± 0.19	0.6314 ± 0.0084
308.15 K, x1 = 0.6001	792.551 ± 0.2	0.5453 ± 0.0082
308.15 K, x1 = 0.6992	791.666 ± 0.21	0.48 ± 0.008
308.15 K, x1 = 0.7991	790.793 ± 0.22	0.4294 ± 0.0079
308.15 K, x1 = 0.899	789.946 ± 0.23	0.3918 ± 0.0078
308.15 K, x1 = 1	789.142 ± 0.24	0.3626 ± 0.0078
313.15 K, x1 = 0.0997	793.009 ± 0.17	1.327 ± 0.01
313.15 K, x1 = 0.1999	791.945 ± 0.17	1.022 ± 0.0093
313.15 K, x1 = 0.3003	790.885 ± 0.18	0.8197 ± 0.0088
313.15 K, x1 = 0.4008	789.819 ± 0.19	0.6843 ± 0.0085
313.15 K, x1 = 0.5003	788.763 ± 0.2	0.5907 ± 0.0083
313.15 K, x1 = 0.6001	787.719 ± 0.2	0.5143 ± 0.0081
313.15 K, x1 = 0.6992	786.701 ± 0.21	0.4552 ± 0.0079
313.15 K, x1 = 0.7991	785.7 ± 0.22	0.4073 ± 0.0078
313.15 K, x1 = 0.899	784.731 ± 0.23	0.3723 ± 0.0078
313.15 K, x1 = 1	783.814 ± 0.24	0.3461 ± 0.0077
318.15 K, x1 = 0.0997	788.88 ± 0.17	1.206 ± 0.0098
318.15 K, x1 = 0.1999	787.652 ± 0.18	0.939 ± 0.0091
318.15 K, x1 = 0.3003	786.442 ± 0.18	0.7575 ± 0.0086
318.15 K, x1 = 0.4008	785.228 ± 0.19	0.637 ± 0.0083
318.15 K, x1 = 0.5003	784.03 ± 0.2	0.5532 ± 0.0081
318.15 K, x1 = 0.6001	782.849 ± 0.2	0.485 ± 0.008
318.15 K, x1 = 0.6992	781.696 ± 0.21	0.43 ± 0.0079
318.15 K, x1 = 0.7991	780.568 ± 0.22	0.386 ± 0.0078
318.15 K, x1 = 0.899	779.478 ± 0.23	0.3532 ± 0.0077
318.15 K, x1 = 1	778.451 ± 0.24	0.3303 ± 0.0077
323.15 K, x1 = 0.0997	784.708 ± 0.17	1.096 ± 0.0095
323.15 K, x1 = 0.1999	783.318 ± 0.18	0.8726 ± 0.0089
323.15 K, x1 = 0.3003	781.954 ± 0.18	0.7156 ± 0.0085
323.15 K, x1 = 0.4008	780.593 ± 0.19	0.6041 ± 0.0082
323.15 K, x1 = 0.5003	779.253 ± 0.2	0.5225 ± 0.0081
323.15 K, x1 = 0.6001	777.934 ± 0.2	0.4597 ± 0.0079
323.15 K, x1 = 0.6992	776.652 ± 0.21	0.4101 ± 0.0078
323.15 K, x1 = 0.7991	775.398 ± 0.22	0.369 ± 0.0077
323.15 K, x1 = 0.899	774.188 ± 0.23	0.3356 ± 0.0077
323.15 K, x1 = 1	773.047 ± 0.24	0.3168 ± 0.0076
